According to patent US8790889B2, “Neuronal stimulation” (The University of Queensland, priority 2009, dated 2014):
Entries after “also recorded” stand apart in the source; their conditions may differ. Structures can show the parent of a compound that is named as a salt.

Experiments:
[1] = tested on: adult hippocampal precursors; assay: Adult hippocampal neurosphere culture; format: cell-based, mouse; conditions: for effect of antagonist on norepinephrine-stimulated increase in neurosphere numbers: in presence of norepinephrine, prazosin 100 nM, propranolol 1 μM, CGP20712 10 nM, SR59230A 10 nM; for effect of antagonist on norepinephrine-stimulated increase in neurosphere numbers / increase in neurosphere numbers compared to the control: yohimbine 1 μM, ICI118,551 10 nM; for neurosphere numbers with antagonist alone / increase in neurosphere numbers compared to the control: no norepinephrine, antagonist alone
Method: Animals were treated in accordance with the Australian Code of Practice for the Care and Use of Animals for Scientific Purposes and ethics approval was obtained for all experiments from the Animal Ethics Committee of the University of Queensland. 8-10 week old male C57/B16 mice were killed by cervical dislocation and their brains removed. Brains were bisected along the midline in the sagittal plane. The hippocampi were isolated from the overlying cortex and minced using a scalpel blade. Minced tissue was digested in 0.1% papain (Invitrogen, Melbourne, Australia) for 20 minutes at 37° C., after which an excess of NeuroCult NSC basal medium (Stem Cell Technologies, Vancouver, Canada) was added to halt the digestion. Tissue was then centrifuged at 100 rcf for 5 minutes, the resulting pellet was resuspended in 1 ml of complete neurosphere medium, and a single cell suspension was achieved by gentle trituration. The cells were filtered through a 40 μm cell sieve (BD Biosciences, Sydney, Australia) and resuspended in NeuroCult NSC basal medium containing NeuroCult proliferation supplements (Stem Cell Technologies), 2% bovine serum albumin (Invitrogen) and 2 μg/ml heparin (Sigma-Aldrich, Sydney, Australia). The growth factors added were 20 ng/ml EGF (receptor grade, BD Biosciences) and 10 ng/ml bFGF (recombinant bovine, Roche, Basel, Switzerland). The cells were then plated in a 96-well plate and cultured in complete neurosphere medium containing EGF and bFGF, in the presence or absence of 5-hydroxytryptamine hydrochloride (serotonin; 100 nM, 1 μM, 10 μM), L-(−)-noradrenaline (+)-bitartrate salt monohydrate (norepinephrine; 100 nM, 1 μM, 10 μM) or KCl (15 mM). The adrenergic receptor antagonists used were prazosin (100 nM), yohimbine (1 μM), propranolol (1 μM), CGP20712 (10 nM), ICI118,551 (10 nM) and SR59230A (10 nM). BRL37344 was used as a selective β3 adrenergic receptor agonist. All the compounds were purchased from Sigma-Aldrich. The number of primary neurospheres was counted on day 10-13 and expressed as a percentage relative to the control.

hippocampal precursors [2] = assay: Slice-sphere assay (hippocampal organotypic slices, then neurosphere culture); format: cell-based, rat; conditions: for neurosphere frequency: FIG. 8b, 1 μM; for effect on precursor numbers / frequency of neurosphere generation: 1 μM or 10 μM
Method: D-glucose (Sigma-Aldrich) was added to the medium to a final concentration of 5 mM. Four filters, each containing 6-7 hippocampal slices, were generated from a single animal. Plates were incubated at 37° C. in a humidified 5% CO2 incubator and the slices were cultured for 6 days. To assess the influence of specific compounds on hippocampal precursor proliferation in the slice culture, compounds were added to the complete medium at the doses described below. Two filters were treated with the compounds for each dose per experiment. On every alternate day half the medium was removed and replaced with fresh medium containing the compounds. Slices were treated with serotonin at 10 μM and 100 μM and norepinephrine at 1 μM, 10 μM and 100 μM. […] Propranolol (10 μM) was used to block β adrenergic receptors in the slices. On the 6th day of culture, the hippocampal slices from each treatment group were pooled and the tissue was minced using a scalpel blade. Minced tissue was then treated with 0.1% trypsin-EDTA (Invitrogen) for 5 minutes at 37° C. […] A single cell suspension was achieved by gentle trituration. The total number of viable cells in an aliquot was counted on a haemocytometer based on the exclusion of 0.08% trypan blue (Sigma-Aldrich). The cells were then cultured in complete neurosphere medium containing EGF and bFGF. […] For each experiment there were 20 wells plated for each of the doses per treatment group. The plates were incubated at 37° C. in a humidified 5% CO2 incubator.

[3] = tested on: stem cells in the hippocampus; assay: i.p. treatment for 7 days, hippocampal neurospheres; format: in vivo, mouse; conditions: 10 mg/kg i.p. for 7 days
Method: (§1) Neurospheres with a diameter greater than […] may be derived from BRL37344 treated mice.

hippocampal precursors [4] = assay: Intrahippocampal infusion for 7 days, hippocampal neurospheres; format: in vivo, mouse; conditions: 10 μM intrahippocampal infusion for 7 days
Method: as §1

[5] = tested on: norepinephrine-stimulated large neurospheres; assay: Hippocampal neurosphere passaging (self-renewal); format: cell-based, mouse; conditions: 10 μM; 15 out of 21
From the text: To ascertain whether the norepinephrine-stimulated large neurospheres indeed reflected the activation of stem cells, individual neurospheres were selected and subjected to long-term passaging to assess their self-renewal capacity.
As a first step primary, neurospheres were individually dissociated and replated into fresh media not containing norepinephrine. Primary neurospheres from the unstimulated hippocampus were also passaged as single spheres. Hippocampal neurosphere cultures were initiated by removing 150 μl of the medium from wells containing single neurospheres, treating with 100 μl 0.1% trypsin-EDTA for 2 minutes at room temperature, followed by washing with 100 μl trypsin inhibitor in HEM. The neurospheres were mechanically triturated until dissociated and replated in 24 well plates in 2 ml of complete medium. Neurospheres were passaged every 10 days by centrifuging the neurospheres, removing the medium and incubating in 1 ml of 0.1% trypsin-EDTA for 2 minutes at room temperature. After the addition of an equal volume of trypsin inhibitor, the neurospheres were centrifuged at 100 rcf for 5 minutes and the supernatant removed. Cells were mechanically triturated in 500 μl of complete medium and trypan blue staining was used to evaluate the number of cells, both viable and total number, on a haemocytometer. […]

hippocampal neurospheres = assay: Immunocytochemistry of neurospheres (multipotentiality); format: cell-based, mouse
Method: We next determined the multipotentiality of the cells present within the neurospheres generated in the presence and absence of norepinephrine (FIG. 2b, c, d).
Control or norepinephrine-stimulated neurospheres were plated onto poly-ornithine-coated cover slips or poly-D-lysine-coated BioCoat eight-well culture slides (BD Biosciences) in serum-free basal medium without any mitogens. The neurospheres were allowed to flatten and adhere for 4-6 days in a humidified, 5% CO2 incubator. They were then fixed with 4% paraformaldehyde in 0.1M phosphate buffered saline (PBS) at 4° C. for 40 min, and immunocytochemistry was performed as described previously 38 using antibodies to the neuronal marker βIII tubulin (1:2000; Promega, Madison, Wis.), the astrocytic marker GFAP (1:500; DakoCytomation, Carpinteria, Calif.) and the oligodendrocyte marker MBP (1:500; Millipore, Sydney, Australia). 4′,6′-diamidino-2-phenylindole (DAPI; 1:5000; Sigma-Aldrich) was used as a nuclear stain. Slides were mounted using fluoromount (DakoCytomation) and viewed on a Zeiss-Axio Imager microscope. Images were captured using a digital camera linked to a computer using Zeiss software.

Hes5-GFP-positive cells = assay: Neurosphere generation from FACS-sorted Hes5-GFP-positive cells; format: cell-based, mouse
Method: Brains from 8-12 weeks old male Hes5-GFP mice were removed and hippocampi were isolated as described earlier. A live cell suspension was prepared from the hippocampus using 0.1% papain, and the dead cells were labelled with propidium iodide (1 μg/ml). GFP-positive and -negative cells were then purified by fluorescence-activated cell sorting (FACS). Cells were sorted on a FACS Vantage (Becton Dickinson, Melbourne, Australia) with DIVA software. The […] was set relative to the basal fluorescence levels obtained from GFP-negative wild-type littermate controls and a conservative approach was used in selecting only high GFP-expressing cells. The cells were collected in basal medium and plated into 96-well tissue culture plates in medium containing EGF+bFGF with or without norepinephrine (10 μM).

## COc1cc2nc(N3CCN(C(=O)c4ccco4)CC3)nc(N)c2cc1OC [prazosin]
[1]
  effect of antagonist on norepinephrine-stimulated increase in neurosphere numbers: failed to inhibit

## CCc1ccccc1OC[C@@H](O)CN[C@H]1CCCc2ccccc21.O=C(O)C(=O)O [SR59230A, 3-(2-ethylphenoxy)-1([1s]-1,2,3,4-tetrahydronaphth-1-ylamino)-2S-propanol oxalate]
[1]
  effect of antagonist on norepinephrine-stimulated increase in neurosphere numbers: completely blocked; also recorded: completely inhibited

## Cc1ccc(OCC(O)C(C)NC(C)C)c2c1CCC2 (stereo not shown) [ICI118,551]
[1]
  neurosphere numbers with antagonist alone: significant increase
  increase in neurosphere numbers compared to the control: about 34%

## CN(C)CCCC1(c2ccc(F)cc2)OCc2cc(C#N)ccc21 (stereo not shown) [citalopram]
Hippocampal precursors [2]; slices treated at 10 μM
  neurosphere frequency as percentage of the control: 113.8±9.9%
Hippocampal precursors [2]; slices treated at 100 μM
  neurosphere frequency as percentage of the control: 103.8±3.8%

## CNCC[C@@H](Oc1ccccc1C)c1ccccc1 [atomoxetine]
Hippocampal precursors [2]
  neurosphere frequency: significant increase
Hippocampal precursors [2]; slices treated at 1 μM
  neurosphere frequency as percentage of the control: 147.0±15.0%

## CC(Cc1ccc(OCC(=O)[O-])cc1)NCC(O)c1cccc(Cl)c1.[Na+] (stereo not shown) [BRL37344]
[3]
  large neurospheres obtained: increase in, large neurospheres; also recorded: increase in large neurospheres
[3]; 8 weeks old C57/B16 mice, n=7
  activation of stem cells in the hippocampus: significant activation of stem cells in the hippocampus
Hippocampal precursors [4]
  activation of hippocampal precursors: activation of hippocampal precursors
  number of neurospheres with a diameter greater than 100 μM: much greater
  total number of neurospheres derived from treated mice: greater than when saline is infused
[1]; 1 μM and 10 μM, comparison 10 μM norepinephrine
  neurosphere numbers compared to norepinephrine treatment: increase in neurosphere numbers similar to that observed in the presence of 10 μM norepinephrine

## Cl.NCCc1c[nH]c2ccc(O)cc12 [serotonin, 5-hydroxytryptamine hydrochloride]
Hippocampal precursors [2]; 10 μM or 100 μM
  effect on frequency of neurosphere formation: no effect
Hippocampal precursors [2]; slices treated at 10 μM
  neurosphere frequency as percentage of the control: 90.07±5.4%
Hippocampal precursors [2]; slices treated at 100 μM
  neurosphere frequency as percentage of the control: 102.81±31.7%
[1]; 100 nM, 1 μM or 10 μM, EGF and bFGF present
  neurosphere numbers compared to the control: no change

## CC(C)NCC(O)COc1cccc2ccccc12 (stereo not shown) [propranolol]
Hippocampal precursors [2]; propranolol 10 μM in presence of norepinephrine
  effect on norepinephrine-mediated increase in precursor activity: completely inhibit; also recorded: abolished
Hippocampal precursors [2]; propranolol 10 μM in presence of reboxetine
  effect on reboxetine-mediated increase in precursor activity: completely inhibit; also recorded: abolished
[1]
  neurosphere numbers with antagonist alone: no toxic effect
  effect of antagonist on norepinephrine-stimulated increase in neurosphere numbers: reduced the norepinephrine-mediated response back to control levels; also recorded: completely inhibited

## Cn1cc(C(F)(F)F)nc1-c1ccc(OCC(O)CNCCOc2ccc(O)c(C(N)=O)c2)cc1 (stereo not shown) [CGP20712, 2-hydroxy-5-(2-[{2-hydroxy-3-(4-[1-methyl-4-trifluoromethyl-2-imidazolyl]phenoxy)-propyl}amino]ethoxy)benzamide]
[1]
  effect of antagonist on norepinephrine-stimulated increase in neurosphere numbers: no such effect

## CNCCC(Oc1ccc(C(F)(F)F)cc1)c1ccccc1 (stereo not shown) [fluoxetine]
Hippocampal precursors [2]
  effect on precursor numbers / frequency of neurosphere generation: no significant change
Hippocampal precursors [2]; listed as Fluoxetine
  effect on precursor numbers / frequency of neurosphere generation: no effect

## CCOc1ccccc1OC(c1ccccc1)C1CNCCO1 (stereo not shown) [reboxetine]
Hippocampal precursors [2]; 10 μM and 100 μM
  frequency of neurosphere formation: significantly enhanced
Hippocampal precursors [2]; slices treated at 1 μM
  neurosphere frequency as percentage of the control: 104.5±9.6%
Hippocampal precursors [2]; slices treated at 10 μM
  increase in frequency of neurosphere formation: 40%
Hippocampal precursors [2]; slices treated at 100 μM
  neurosphere frequency as percentage of the control: 265.0±11.7%

## NC[C@H](O)c1ccc(O)c(O)c1 [norepinephrine, L-(−)-noradrenaline (+)-bitartrate salt monohydrate]
[5]
  proportion of stimulated large neurospheres (>200 μm) that could be passaged over 10 times: 71.4%
Hippocampal neurospheres; all large neurospheres examined, n=9
  neurons per stimulated large neurosphere: > 50 neurons
Hippocampal neurospheres; stimulated neurospheres
  neurospheres containing MBP-positive oligodendrocytes: One third
Hippocampal neurospheres; stimulated neurospheres examined
  neurospheres containing βIII tubulin-positive neurons: 62 out of 82
Hes5-GFP-positive cells; 10 μM, GFP-positive population
  very large neurospheres (>200 μm in diameter): 7.3±0.8 neurospheres per hippocampus
Hes5-GFP-positive cells; Hes5-GFP-positive cells plated at clonal density
  increase in neurosphere numbers: 215.4±23.5%
Hes5-GFP-positive cells; n=2 experiments, SR59230A 10 nM
  number of neurospheres from purified Hes5-GFP-positive precursor population: 45.5±2.5 neurospheres
Hippocampal precursors [2]; slices treated at 100 μM
  increase in neurosphere frequency / precursor activity: 3.5 fold
[1]; 100 nM and 1 μM
  neurosphere numbers compared to the control: significant increase
[1]; 10 μM
  size of neurospheres: larger than the control neurospheres
[1]; norepinephrine with or without SR59230A 10 nM
  very large neurospheres generated: 12±2.08 neurospheres

## [Cl-].[K+] [KCl]
[1]; KCl 15 mM alone
  increase in neurosphere numbers: 2 fold

## COC(=O)[C@@H]1[C@H]2C[C@H]3c4[nH]c5ccccc5c4CCN3C[C@@H]2CC[C@@H]1O [yohimbine]
[1]
  neurosphere numbers with antagonist alone: slight but significant increase
  increase in neurosphere numbers compared to the control: 40%
  effect of antagonist on norepinephrine-stimulated increase in neurosphere numbers: failed to inhibit

## CNCCCC12CCC(c3ccccc31)c1ccccc12 [maprotiline]
Hippocampal precursors [2]
  neurosphere frequency: significant increase
Hippocampal precursors [2]; slices treated at 1 μM
  neurosphere frequency as percentage of the control: 258.5±25.5%
